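GI50: concentration for 50% inhibition of growth. TGI denotes the concentration required for complete inhibition of growth.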
Columns and labels:
Assay in all cases: growth of human tumour cells (NCI), 384-well format
[1] = system: 786-0 renal
[2] = system: A498 renal
[3] = system: A549 NSCLC
[4] = system: ACHN renal
[5] = system: BT-549 breast
[6] = system: CAKI-1 renal
[7] = system: CCRF-CEM leukemia
[8] = system: COLO 205 colon
[9] = system: DU-145 prostate
[10] = system: EKVX NSCLC
[11] = system: HCC-2998 colon
[12] = system: HCT-15 colon
[13] = system: HL-60(TB) leukemia
[14] = system: HOP-62 NSCLC
[15] = system: HOP-92 NSCLC
[16] = system: HS 578T breast
[17] = system: HT29 colon
[18] = system: IGROV1 ovarian
[19] = system: K-562 leukemia
[20] = system: KM12 colon
[21] = system: LOX IMVI melanoma
[22] = system: M14 melanoma
[23] = system: MALME-3M melanoma
[24] = system: MCF7 breast
[25] = system: MDA-MB-231 breast
[26] = system: MDA-MB-435 melanoma
[27] = system: MDA-MB-468 breast
[28] = system: MOLT-4 leukemia
[29] = system: NCI-H226 lung
[30] = system: NCI-H23 lung
[31] = system: NCI-H322M lung
[32] = system: NCI-H460 NSCLC
[33] = system: NCI-H522 lung
[34] = system: NCI/ADR-RES ovarian
[35] = system: OVCAR-3 ovarian
[36] = system: OVCAR-4 ovarian
[37] = system: OVCAR-5 ovarian
[38] = system: OVCAR-8 ovarian
[39] = system: PC-3 prostate
[40] = system: RPMI-8226 leukemia
[41] = system: RXF 393 renal
[42] = system: SF-268 CNS
[43] = system: SF-295 CNS
[44] = system: SF-539 CNS
[45] = system: SK-MEL-28 melanoma
[46] = system: SK-MEL-5 melanoma
[47] = system: SK-OV-3 ovarian
[48] = system: SN12C renal
[49] = system: SNB-19 CNS
[50] = system: SNB-75 CNS
[51] = system: SR leukemia
[52] = system: SW-620 colon
[53] = system: T-47D breast
[54] = system: TK-10 renal
[55] = system: U251 glioblastoma
[56] = system: UACC-257 melanoma
[57] = system: UACC-62 melanoma
[58] = system: UO-31 renal

## Cn1cncc1[C@@](N)(c1ccc(Cl)cc1)c1ccc2c(c1)c(-c1cccc(Cl)c1)cc(=O)n2C
[1]
  GI50: 1.16 µM
  TGI: 8.76 µM
[2]
  GI50: 0.0746 µM
  TGI: 4.04 µM
[3]
  GI50: 1.64 µM
  TGI: 11.1 µM
[4]
  GI50: 1.28 µM
  TGI: 5.31 µM
[5]
  GI50: 1.34 µM
  TGI: 4.32 µM
[6]
  GI50: 2.11 µM
  TGI: 11.9 µM
[7]
  GI50: < 0.01 µM
  TGI: 1.25 µM
[8]
  GI50: 1.23 µM
  TGI: 3.77 µM
[9]
  GI50: 2.4 µM
  TGI: 12.1 µM
[10]
  GI50: 1.52 µM
  TGI: 6.02 µM
[11]
  GI50: 1.27 µM
  TGI: 3.23 µM
[12]
  GI50: 0.884 µM
  TGI: 5.18 µM
[13]
  GI50: < 0.01 µM
  TGI: 1.28 µM
[14]
  GI50: 1.9 µM
  TGI: 8.68 µM
[15]
  GI50: 0.271 µM
  TGI: 3.62 µM
[16]
  GI50: 1.46 µM
  TGI: 4.62 µM
[17]
  GI50: 1.38 µM
  TGI: 3.62 µM
[18]
  GI50: 1.56 µM
  TGI: 4.99 µM
[19]
  GI50: 0.2 µM
  TGI: 2.05 µM
[20]
  GI50: 0.186 µM
  TGI: 2.31 µM
[21]
  GI50: 1.13 µM
  TGI: 3.31 µM
[22]
  GI50: 0.022 µM
  TGI: 2.21 µM
[23]
  GI50: 0.141 µM
  TGI: 2.05 µM
[24]
  GI50: 1.08 µM
  TGI: 3.66 µM
[25]
  GI50: 1.52 µM
  TGI: 8.3 µM
[26]
  GI50: 0.189 µM
  TGI: 1.51 µM
[27]
  GI50: 0.0235 µM
  TGI: 1.83 µM
[28]
  GI50: < 0.01 µM
  TGI: 0.0579 µM
[29]
  GI50: 1.08 µM
  TGI: 6.96 µM
[30]
  GI50: 1.51 µM
  TGI: 4.81 µM
[31]
  GI50: 2.06 µM
  TGI: 15.8 µM
[32]
  GI50: 0.391 µM
  TGI: 6.17 µM
[33]
  GI50: 1.1 µM
  TGI: 3.85 µM
[34]
  GI50: 1.62 µM
  TGI: 5.51 µM
[35]
  GI50: 1.25 µM
  TGI: 3.77 µM
[36]
  GI50: 1.13 µM
  TGI: 5.26 µM
[37]
  GI50: 2.49 µM
  TGI: 12.2 µM
[38]
  GI50: 2.41 µM
  TGI: 12.3 µM
[39]
  GI50: 1.42 µM
  TGI: 6.97 µM
[40]
  GI50: 0.0111 µM
  TGI: 0.218 µM
[41]
  GI50: 0.472 µM
  TGI: 10.1 µM
[42]
  GI50: 1.78 µM
  TGI: 11.4 µM
[43]
  GI50: 0.463 µM
  TGI: 2.78 µM
[44]
  GI50: 1.21 µM
  TGI: 4.33 µM
[45]
  GI50: 1.37 µM
  TGI: 6.44 µM
[46]
  GI50: 0.313 µM
  TGI: 2.13 µM
[47]
  GI50: 1.26 µM
  TGI: 8.17 µM
[48]
  GI50: 0.179 µM
  TGI: 5.39 µM
[49]
  GI50: 2.33 µM
  TGI: 13.2 µM
[50]
  GI50: 1.35 µM
  TGI: 4.96 µM
[51]
  GI50: 0.0129 µM
  TGI: 0.194 µM
[52]
  GI50: 1.36 µM
  TGI: 4.41 µM
[53]
  GI50: 0.0645 µM
  TGI: 3.67 µM
[54]
  GI50: 1.75 µM
  TGI: 6.98 µM
[55]
  GI50: 1.11 µM
  TGI: 12.6 µM
[56]
  GI50: 1.38 µM
  TGI: 4.88 µM
[57]
  GI50: 0.173 µM
  TGI: 2.75 µM
[58]
  GI50: 0.708 µM
  TGI: 9.77 µM
